Laboratory results: US9115101B2 (Genentech, Inc., priority 2012, dated 2015)

target: T1, RORc ligand binding domain (Homo sapiens, UniProt P51449); assay: In Vitro RORc Ligand Binding Assay (25-[3H]hydroxycholesterol radioligand filtration); conditions: In Vitro RORc Ligand Binding Assay; Table 4; read-out: RORc IC50
T1 construct: host or cells: E. coli
T1 sequence (P51449 269-508 limits assumed): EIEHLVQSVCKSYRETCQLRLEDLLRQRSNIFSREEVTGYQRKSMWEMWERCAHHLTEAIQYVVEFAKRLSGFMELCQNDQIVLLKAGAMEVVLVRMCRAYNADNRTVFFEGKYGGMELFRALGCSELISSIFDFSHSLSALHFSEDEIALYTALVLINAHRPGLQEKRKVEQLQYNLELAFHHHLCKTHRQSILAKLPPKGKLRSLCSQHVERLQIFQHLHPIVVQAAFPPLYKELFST

Row | SMILES | IC50
1 | C[C@H]1CCC(c2ccccc2)S(=O)(=O)N1Cc1ccc(N2CCC(c3nnn[nH]3)CC2)cc1F (single isomer, unassigned) [Example 141] | 57 nM
2 | C[C@H]1CCC(c2ccccc2)S(=O)(=O)N1Cc1ccc(N2CCC(c3nnn[nH]3)CC2)cc1F (single isomer, unassigned) [Example 142] | 192 nM
3 | C[C@H]1CCC(c2ccccc2)S(=O)(=O)N1Cc1ccc(N2CCC(c3n[nH]c(=O)o3)CC2)cc1F (single isomer, unassigned) [Example 143] | 44 nM
4 | C[C@H]1CCC(c2ccccc2)S(=O)(=O)N1Cc1ccc(N2CCC(c3n[nH]c(=O)o3)CC2)cc1F (single isomer, unassigned) [Example 144] | 21 nM
5 | C[C@H]1CCC(c2ccccc2)S(=O)(=O)N1Cc1ccc(N2CCc3[nH]ncc3C2)cc1F (single isomer, unassigned) [Example 145] | 242 nM
6 | CON(C)C(=O)C1CCN(c2ccc(CN3[C@@H](C)CCC(c4ccccc4)S3(=O)=O)c(F)c2)CC1 (single isomer, unassigned) [Example 146] | 142 nM
7 | CON(C)C(=O)C1CCN(c2ccc(CN3[C@@H](C)CCC(c4ccccc4)S3(=O)=O)c(F)c2)CC1 (single isomer, unassigned) [Example 147] | 1780 nM
8 | C[C@H]1CCC(c2ccccc2)S(=O)(=O)N1Cc1ccc(N2CCn3cnnc3C2)cc1F (single isomer, unassigned) [Example 148] | 1600 nM
9 | C[C@H]1CCC(c2ccccc2)S(=O)(=O)N1Cc1ccc(N2CCn3cnnc3C2)cc1F (single isomer, unassigned) [Example 149] | 1460 nM
10 | C[C@H]1CCC(c2ccccc2)S(=O)(=O)N1Cc1ccc(N2CCC(n3cnnc3)CC2)cc1F (single isomer, unassigned) [Example 150] | 29 nM
11 | C[C@H]1CCC(c2ccccc2)S(=O)(=O)N1Cc1ccc(N2CCC(n3cnnc3)CC2)cc1F (single isomer, unassigned) [Example 151] | 27 nM
12 | C[C@H]1CCC(c2ccccc2)S(=O)(=O)N1Cc1ccc(N2CCC(c3cc(O)no3)CC2)cc1F (single isomer, unassigned) [Example 152] | 29 nM
13 | C[C@H]1CCC(c2ccccc2)S(=O)(=O)N1Cc1ccc(N2CCC(c3cc(O)no3)CC2)cc1F (single isomer, unassigned) [Example 153] | 55 nM
14 | C[C@H]1CCC(c2ccccc2)S(=O)(=O)N1Cc1ccc(N2CCn3cncc3C2)cc1F (single isomer, unassigned) [Example 154] | 145 nM
15 | C[C@H]1CCC(c2ccccc2)S(=O)(=O)N1Cc1ccc(N2CCn3cncc3C2)cc1F (single isomer, unassigned) [Example 155] | 175 nM
16 | C[C@H]1CCC(c2ccccc2)S(=O)(=O)N1Cc1ccc(N2CCc3[nH]ncc3C2)cc1F (single isomer, unassigned) [Example 156] | 272 nM
17 | C[C@H]1CCC(c2ccccc2)S(=O)(=O)N1Cc1ccc(N2CCn3c(n[nH]c3=O)C2)cc1F (single isomer, unassigned) [Example 157] | 1700 nM
18 | C[C@H]1CCC(c2ccccc2)S(=O)(=O)N1Cc1ccc(N2CCn3c(n[nH]c3=O)C2)cc1F (single isomer, unassigned) [Example 158] | 3930 nM
19 | COc1cc(N2CCN(C(C)=O)CC2)ccc1CN1[C@@H](C)CCC(c2ccccc2)S1(=O)=O (single isomer, unassigned) [Example 159] | 1610 nM
20 | COc1cc(N2CCN(C(C)=O)CC2)ccc1CN1[C@@H](C)CCC(c2ccccc2)S1(=O)=O (single isomer, unassigned) [Example 160] | 207 nM
21 | COc1cc(CN2[C@@H](C)CCC(c3ccccc3)S2(=O)=O)ccc1N1CCN(C(C)=O)CC1 (single isomer, unassigned) [Example 161] | 3080 nM
22 | COc1cc(CN2[C@@H](C)CCC(c3ccccc3)S2(=O)=O)ccc1N1CCN(C(C)=O)CC1 (single isomer, unassigned) [Example 162] | 812 nM
23 | CC(=O)N1CCN(c2ccc(CN3[C@@H](C)CCC(c4ccccc4)S3(=O)=O)cc2Cl)CC1 (single isomer, unassigned) [Example 163] | 57 nM
24 | CC(=O)N1CCN(c2ccc(CN3[C@@H](C)CCC(c4ccccc4)S3(=O)=O)cc2Cl)CC1 (single isomer, unassigned) [Example 164] | 115 nM
25 | C[C@H]1CCC(c2ccccc2)S(=O)(=O)N1Cc1ccc(NC2CCN(S(C)(=O)=O)CC2)cc1F (single isomer, unassigned) [Example 166] | 25 nM
26 | C[C@H]1CCC(c2ccccc2)S(=O)(=O)N1Cc1ccc(NC2CCN(S(C)(=O)=O)CC2)cc1F (single isomer, unassigned) [Example 167] | 9 nM

Row | SMILES | IC50
27 | CC(=O)N1CCN(c2ccc(CN3CC(C)(C)CC(c4ccccc4)S3(=O)=O)c(F)c2)CC1 (single isomer, unassigned) [Example 168, 1-{4-[4-(4,4-Dimethyl-1,1-dioxo-6-phenyl-[1,2]thiazinan-2-ylmethyl)-3-fluoro-phenyl]-piperazin-1-yl}-ethanone] | 1000 nM
28 | CC(=O)N1CCN(c2ccc(CN3C[C@H](C)CC(c4ccccc4)S3(=O)=O)c(F)c2)CC1 (single isomer, unassigned) [Example 169] | 132 nM
29 | CC(=O)N1CCN(c2ccc(CN3C[C@H](C)CC(c4ccccc4)S3(=O)=O)c(F)c2)CC1 (single isomer, unassigned) [Example 170] | 54 nM
30 | CC(=O)N1CCN(c2ccc(CN3CC(C)(C)CC(c4ccccc4)S3(=O)=O)c(F)c2)CC1 (single isomer, unassigned) [Example 171, 1-{4-[4-(4,4-Dimethyl-1,1-dioxo-6-phenyl-[1,2]thiazinan-2-ylmethyl)-3-fluoro-phenyl]-piperazin-1-yl}-ethanone] | 200 nM
31 | CC(=O)N1CCN(c2ccc(CN3[C@@H](C)CCC(c4ccc(C#N)cc4)S3(=O)=O)c(F)c2)CC1 (single isomer, unassigned) [Example 172] | 1020 nM
32 | CC(=O)N1CCN(c2ccc(CN3[C@@H](C)CCC(c4ccc(C#N)cc4)S3(=O)=O)c(F)c2)CC1 (single isomer, unassigned) [Example 173] | 2060 nM
33 | CC(=O)N1CCN(c2ccc(CN3[C@@H](C)CCC(c4ccc(Cl)cc4)S3(=O)=O)c(F)c2)CC1 (single isomer, unassigned) [Example 174] | 77 nM
34 | CC(=O)N1CCN(c2ccc(CN3[C@@H](C)CCC(c4ccc(Cl)cc4)S3(=O)=O)c(F)c2)CC1 (single isomer, unassigned) [Example 175] | 30 nM
35 | COc1ccc(C2CC[C@H](C)N(Cc3ccc(N4CCN(C(C)=O)CC4)cc3F)S2(=O)=O)cc1 (single isomer, unassigned) [Example 176] | 133 nM
36 | COc1ccc(C2CC[C@H](C)N(Cc3ccc(N4CCN(C(C)=O)CC4)cc3F)S2(=O)=O)cc1 (single isomer, unassigned) [Example 177] | 147 nM
37 | CC(=O)N1CCN(c2cnc(CN3[C@@H](C)CCC(c4ccccc4)S3(=O)=O)cn2)CC1 (single isomer, unassigned) [Example 178] | 1430 nM
38 | CC(=O)N1CCN(c2cnc(CN3[C@@H](C)CCC(c4ccccc4)S3(=O)=O)cn2)CC1 (single isomer, unassigned) [Example 179] | 942 nM
39 | C[C@H](O)C(=O)N1C[C@H]2C[C@@H]1CN2c1ccc(CN2[C@@H](C)CCC(c3ccccc3)S2(=O)=O)c(F)c1 (single isomer, unassigned) [Example 182] | 41 nM
40 | C[C@H](O)C(=O)N1C[C@H]2C[C@@H]1CN2c1ccc(CN2[C@@H](C)CCC(c3ccccc3)S2(=O)=O)c(F)c1 (single isomer, unassigned) [Example 183] | 40 nM
41 | CC(=O)N1CCN(c2ccc(CN3[C@@H](C)CCC(c4ccc(C)cc4)S3(=O)=O)c(F)c2)CC1 (single isomer, unassigned) [Example 184] | 98 nM
42 | CC(=O)N1CCN(c2ccc(CN3[C@@H](C)CCC(c4cccc(Cl)c4)S3(=O)=O)c(F)c2)CC1 (single isomer, unassigned) [Example 185] | 25 nM
43 | COc1cccc(C2CC[C@H](C)N(Cc3ccc(N4CCN(C(C)=O)CC4)cc3F)S2(=O)=O)c1 (single isomer, unassigned) [Example 190] | 117 nM
44 | COc1cccc(C2CC[C@H](C)N(Cc3ccc(N4CCN(C(C)=O)CC4)cc3F)S2(=O)=O)c1 (single isomer, unassigned) [Example 191] | 116 nM
45 | CC(=O)N1CCN(c2ccc(CN3[C@@H](C)CCC(c4cccc(C)c4)S3(=O)=O)c(F)c2)CC1 (single isomer, unassigned) [Example 192] | 6 nM
46 | CC(=O)N1CCN(c2ccc(CN3[C@@H](C)CCC(c4cccc(C)c4)S3(=O)=O)c(F)c2)CC1 (single isomer, unassigned) [Example 193] | 24 nM
47 | CC[C@H]1CCC(c2ccccc2)S(=O)(=O)N1Cc1ccc(N2CCN(C(C)=O)CC2)cc1F (single isomer, unassigned) [Example 194] | 18 nM
48 | CC[C@H]1CCC(c2ccccc2)S(=O)(=O)N1Cc1ccc(N2CCN(C(C)=O)CC2)cc1F (single isomer, unassigned) [Example 195] | 73 nM
49 | CC(=O)N1CCN(c2ccc(CN3CC4(CC4)CC(c4ccccc4)S3(=O)=O)c(F)c2)CC1 (single isomer, unassigned) [Example 196, 1-{4-[4-(6,6-Dioxo-7-phenyl-6-thia-5-aza-spiro[2.5]oct-5-ylmethyl)-3-fluoro-phenyl]-piperazin-1-yl}-ethanone] | 192 nM
50 | CC(=O)N1CCN(c2ccc(CN3C[C@@H](C)CC(c4ccccc4)S3(=O)=O)c(F)c2)CC1 (single isomer, unassigned) [Example 197] | 356 nM
51 | CC(=O)N1CCN(c2ccc(CN3C[C@@H](C)CC(c4ccccc4)S3(=O)=O)c(F)c2)CC1 (single isomer, unassigned) [Example 198] | 19 nM
